Laboratory results taken from US20260193294A1, “POLYPEPTIDE INHIBITOR, AND PREPARATION METHOD THEREFOR AND USE THEREOF” (SHANGHAI HANSOH BIOMEDICAL CO., LTD., priority 2022, published 2026).
pIC50: −log10 of the molar value.

What was measured:
[1] = Pharmacokinetic determination in rats (IV); conditions: male, Sprague-Dawley (SD), rat, plasma, 1 mg/kg
Method: SD rats were used as test animals to study the pharmacokinetic behavior of the compounds of the examples in the rats (plasma) after oral or IV administration.
Preparation of intravenous drug: PBS
The compounds of the examples were weighed and dissolved in this solution, vortexed, ultrasonicated for 5 min, and filtered through a 0.22 μm filter membrane to obtain colorless clear solutions with a concentration of 0.2 mg/mL.
3 SD rats/group, male were fasted overnight and then respectively administered IV at a dose of 1 mg/kg and a volume of 5 mL/kg.
• Before administration and at 0.083 h, 0.25 h, 0.5 h, 1.0 h, 2.0 h, 4.0 h, 6.0 h, 8.0 h, and 24.0 h after administration (IV), 0.2 mL of blood was collected from the jugular vein, placed in an EDTA-2K test tube, and centrifuged at 6000 rpm for 6 min at 4° C. to separate plasma, which was stored at −20° C.; and the rats were fed 4 h after administration.
1) Acetonitrile (200 μL) was added to the plasma sample (50 μL) for precipitation, and the mixture was mixed and centrifuged at 4500 rpm for 15 min.
(§3) 2) The treated supernatant solution was taken and subjected to LC/MS/MS to analyze the concentrations of the test compounds. LC/MS/MS analysis instrument: AB Sciex Triple Quad 6500+.
• Liquid phase conditions: Shimadzu LC-30AD pump • Chromatographic column: HALO 90A PFP 2.7 μm 2.1×30 mm, mobile phase: liquid A: 5% acetonitrile aqueous solution (0.1% formic acid), and liquid B: an aqueous solution of 95% acetonitrile (0.1% formic acid) • Flow rate: 0.6 mL/min • Elution time: 0-2.0 min, the eluent was as follows:
(§4) The main pharmacokinetic parameters were calculated using WinNonlin 8.1.

IL23R = biological target: T1, IL23R (Homo sapiens, UniProt Q5VWK5); assay: Competing with IL23 for binding to IL23R (HTRF, IL23/IL23R binding assay kit); conditions: 2 hours incubation at room temperature
T1 construct: Tag2 (identity not disclosed); purchased PerkinElmer 64BDPIL23PEH
T1 sequence (Q5VWK5 24-355 limits assumed): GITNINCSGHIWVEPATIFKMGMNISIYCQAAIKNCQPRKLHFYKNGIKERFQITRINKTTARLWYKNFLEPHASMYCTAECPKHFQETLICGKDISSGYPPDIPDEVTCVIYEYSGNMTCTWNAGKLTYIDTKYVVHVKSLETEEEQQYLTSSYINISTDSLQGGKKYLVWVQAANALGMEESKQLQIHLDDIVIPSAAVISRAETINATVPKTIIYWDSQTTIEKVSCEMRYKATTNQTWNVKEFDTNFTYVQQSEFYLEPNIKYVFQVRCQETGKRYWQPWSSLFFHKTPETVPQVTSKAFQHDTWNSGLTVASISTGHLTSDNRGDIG
Method: (§1) The compounds of the present disclosure were screened in IL23/IL23R BINDING ASSAY KITS (PerkinElmer Cat #64BDPIL23PEH). The screening of the compounds of the present disclosure was carried out by using a multi-well plate (suitable for HTRF determination). Generally, 2 μl of several compounds of the present disclosure and STANDARD SOLUTIONS in KIT were first respectively added to the wells of the multi-well plate. 4 μl of Tag1-IL23, 4 μl of Tag2-IL23R, and 10 μL of pre-mixed Anti-Tag1 Eu Cryptate Antibody and Anti-Tag2 d2 reagent were necessarily added to all the wells. The multi-well plate was protected from light by an opaque cover membrane, and the opaque cover membrane was then removed
as §1, with “removed after 2 hours of incubation at room temperature. The signal value was read by an HTRF-compatible detection instrument to detect IC50 value.” for “removed”
(§2) The inhibition rate was calculated as follows: […]
By using log (inhibitor) vs. response—Variable slope (four parameters) in Graphpad, the data of HTRF experiment results were subjected to non-linear regression fitting to fit a curve and obtain the IC50 value.

[2] = test system: activation of STAT3 phosphorylation by hIL23 in DB cells; assay: Blocking the activation of STAT3 phosphorylation by hIL23 in DB cells (p-STAT3 ELISA); assay type: cell-based, Human; conditions: DB cells stimulated by rhIL-23 0.5 nM, half an hour; read-out: pStat3 IC50
Method: To determine the inhibitory activity of the compounds of the present disclosure on the activation of STAT3 phosphorylation by hIL23 in DB cells
The compounds produced above were added to DB (ATCC Cat #CRL-2289) cells to inhibit the signal transduction of rhIL-23 cytokine. The screening of compounds was carried out by a multi-well plate (suitable for ELISA assay). Generally, in the presence of some of the above compounds of the present disclosure, 6.25×10^6 cells/ml of DB cells were stimulated by rhIL-23 (0.5 nM, R&D SYSTEMS) in RPMI medium (Invitrogen) containing 10% of FBS, and after half an hour, lysis was carried out on ice using 50 μL of 2×lysis buffer (CST). The content of p-STAT3 in the lysate was determined by PathScan Phospho-Stat3 (Tyr705) Sandwich ELISA Kit (CST Cat #7300C), so as to calculate the activity of the compounds of the present disclosure in blocking rhIL23 signal transduction in DB cells.
as §2
By using log (inhibitor) vs. response—Variable slope (four parameters) in Graphpad, the data of ELISA experiment results were subjected to non-linear regression fitting to fit a curve and obtain the IC50 value.

in vivo = conditions: male, beagle, dog, iv, 0.2 mg/kg
Method: Beagle dogs were used as test animals to study the pharmacokinetic behavior of the compounds of the examples in the rats (plasma) after IV administration.
3 beagle dogs/group, male, from Yizheng Anlimao Biotechnology Co., Ltd.
The compounds of the examples were weighed and dissolved in this solution, vortexed, ultrasonicated for 5 min, and filtered through a 0.22 μm filter membrane to obtain colorless clear solutions with a concentration of 0.1 mg/mL.
3 beagle dogs/group, male were fasted overnight and then respectively administered IV at a dose of 0.2 mg/kg and a volume of 2 mL/kg.
1) Acetonitrile (200 μL) was added to the plasma sample (50 L) for precipitation, and the mixture was mixed and centrifuged at 4500 rpm for 15 min.
as §3
Premier Peptide CSH C18 130A 1.7 μm 2.1*100 mm Column, mobile phase: liquid A: 5% acetonitrile aqueous solution (0.1% formic acid), and liquid B: an aqueous solution of 95% acetonitrile (0.1% formic acid) • Flow rate: 0.6 mL/min • Elution time: 0-2.0 min, the eluent was as follows:
as §4

CC(=O)NCCCC[C@@H]1NC(=O)[C@H](Cc2c[nH]c3c(C)cccc23)NC(=O)[C@H]([C@@H](C)O)NC(=O)[C@H](CC(N)=O)NC(=O)[C@@H](NC(C)=O)C(C)(C)SSC(C)(C)[C@@H](C(=O)N[C@@H](Cc2ccc(OCCN)cc2)C(=O)N[C@@H](Cc2ccc3ccccc3c2)C(=O)NC2(C(=O)N[C@@H](CCC(=O)O)C(=O)N[C@@H](CC(N)=O)C(=O)N[C@@H](Cc3cccnc3)C(=O)N(C)CCNC(=O)CCOCCOCC[N+](C)(C)CCNC(=O)COCCOCCNC(=O)COCCOCCNC(=O)CC[C@H](NC(=O)CCCCCCCCCCCCCCC(=O)O)C(=O)O)CCC(F)(F)CC2)NC1=O [Example 1-16-1]
AUC(0-inf) [1]: 47600 ng·h/mL
AUC(0-t) [1]: 46100 ng·h/mL
C0 [1]: 12600 ng/mL
MRT [1]: 6.2 h
clearance [1]: 0.35 mL/min/kg
pIC50 (IL23R): 8.56
pIC50 [2]: 11.32
half-life (in vivo): 53.8 h
